Patent US9353082B2, “Pharmaceutical compounds” (BIAL—PORTELA & CA, S.A., priority 2008, dated 2016)

What was measured:
carboxylesterase (CE) [1] = experiment: Carboxylesterase (CE) activity in mouse liver microsomes (LVms), p-nitrophenyl acetate; format: biochemical; conditions: 10 uM compound, read 10 min after substrate, remaining CE activity
Experimental: (§1) FAAH inhibition was determined as described above. Inhibition of monoacylglycerol lipase (MAGL) and carboxylesterase (CE) was performed according to the protocols described below. The controls for both in vitro and in vivo were the reaction mix minus the test compounds. Therefore, a low value in Table 2 below for the test compounds indicates a strong inhibitor.
(§2) CE activity measurement is based on the formation of p-nitrophenol from p-nitrophenyl acetate. Briefly, in 96-well plates 8 μg/ml of rat or mouse liver microsomes (LVms) were incubated with 10 μM FAAH inhibitors for 15 min and then the substrate, p-nitrophenyl acetate, was added to a final concentration of 1 mM. The plate was read at 405 nm 10 min after substrate addition for the appearance of p-nitrophenol using a spectrophotometer. The carboxylesterase activity in microsome extracts without inhibitor added were set at 100% as control and the remaining CE activities after incubation with inhibitors were calculated relative to the control.

FAAH [2] = target: T1, FAAH (Rattus norvegicus, UniProt P97612); experiment: In vitro FAAH activity in rat brain membranes, 3H-AEA substrate, % of control; format: biochemical, Wistar rats; conditions: low value = strong inhibitor; for FAAH 100 nM: 100 nM compound; for In Vitro FAAH activity, 100 nM: 100 nM test compound; for In Vitro 100 nM (FAAH activity, % of control): compound at 100 nM
T1 construct: Frozen brains (without cerebellum) from Wistar rats were used; from tissue; host or cells: Wistar rat brain (without cerebellum), washed membrane pellets
T1 sequence (P97612 1-579): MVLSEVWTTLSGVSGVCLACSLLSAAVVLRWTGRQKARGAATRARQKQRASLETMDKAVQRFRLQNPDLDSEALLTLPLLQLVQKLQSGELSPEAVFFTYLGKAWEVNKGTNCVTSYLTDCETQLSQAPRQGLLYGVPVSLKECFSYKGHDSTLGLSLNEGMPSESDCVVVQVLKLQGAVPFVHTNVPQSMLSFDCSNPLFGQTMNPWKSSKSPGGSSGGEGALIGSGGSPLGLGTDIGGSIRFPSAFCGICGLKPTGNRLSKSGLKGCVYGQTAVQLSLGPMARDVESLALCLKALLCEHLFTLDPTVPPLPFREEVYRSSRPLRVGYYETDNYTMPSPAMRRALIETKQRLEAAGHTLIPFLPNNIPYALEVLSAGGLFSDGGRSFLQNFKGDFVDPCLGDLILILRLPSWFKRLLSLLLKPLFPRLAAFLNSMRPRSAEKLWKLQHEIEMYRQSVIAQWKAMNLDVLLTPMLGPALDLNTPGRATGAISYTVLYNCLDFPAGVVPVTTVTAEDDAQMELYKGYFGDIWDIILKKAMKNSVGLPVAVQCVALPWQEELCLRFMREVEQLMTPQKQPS
Summary of the method: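 Wistar rat brain membranes (5 μg protein) preincubated 15 min at 37 °C with compound at 10 μM or 0.1 μM (0.1% DMSO), then 2 μM AEA including 3H-AEA with 0.1% BSA, Tris pH 7.6, 10 min. 3H-ethanolamine counted after charcoal stop; % of no-compound control after blank subtraction.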

carboxylesterase (CE) [3] = experiment: Carboxylesterase (CE) activity in rat liver microsomes (LVms), p-nitrophenyl acetate; format: biochemical; conditions: 10 uM compound, read 10 min after substrate, remaining CE activity
Experimental: as §1, §2

[4] = target: T2, monoacylglycerol lipase (MAGL) (Rattus norvegicus, UniProt Q8R431); experiment: MAGL activity in rat cerebella cytosol (CRBcyt), hydrolysis of [3H] 2-OG; format: biochemical, WISTAR rats; conditions: 12.5 uM compound, remaining MAGL activity
T2 construct: cerebella cytosol (CRBcyt) fractions, previously obtained from adult WISTAR rats; from tissue; host or cells: adult Wistar rat cerebella, cytosol fraction
T2 sequence (Q8R431 1-303): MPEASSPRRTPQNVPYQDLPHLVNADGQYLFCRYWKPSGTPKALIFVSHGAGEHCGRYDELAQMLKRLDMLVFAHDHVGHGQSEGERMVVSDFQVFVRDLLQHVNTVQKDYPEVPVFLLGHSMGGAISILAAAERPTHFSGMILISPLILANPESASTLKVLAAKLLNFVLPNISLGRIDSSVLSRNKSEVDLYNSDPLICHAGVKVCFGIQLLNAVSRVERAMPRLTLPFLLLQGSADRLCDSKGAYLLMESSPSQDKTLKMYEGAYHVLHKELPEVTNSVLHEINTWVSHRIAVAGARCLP
Experimental: as §1
MAGL activity measurement was based on rate of hydrolysis of [^3H] 2-OG (glycerol labeled) as substrate. Briefly, cerebella cytosol (CRBcyt) fractions, previously obtained from adult WISTAR rats, were diluted to appropriate assay protein concentrations in Tris-HCl buffer (10 mM, pH 7.2) containing 1 mM EDTA, and were added to assay tubes containing test compound. Blanks contained assay buffer instead of cytosol samples were used as control. […] The final assay contained 0.125% w v^−1 fatty acid-free BSA. After the incubation phase, reactions were stopped by adding 400 μL chloroform:methanol (1/1 v v^−1), vortex mixing the tubes two times and placing them on ice. Phases were separated by centrifugation and 200 μL aliquots of the methanol/buffer phase were taken and tritium content assayed by liquid scintillation spectroscopy with quench correction.

FAAH [5] = target: T3, FAAH (Mus musculus, UniProt O08914); experiment: In vivo FAAH inhibition after oral dosing, remaining activity in liver homogenate (LVh, peripheral tissue); design: species or system NMRI mice; conditions: for FAAH LVh 3 mg · kg · 8 h: in vivo, mouse liver, remaining enzymatic activity; for FAAH LVh 3 mg · kg · 8 h / In Vivo LVh 3 mg · kg · 8 h (remaining FAAH activity): 3 mg/kg oral; for In Vivo LVh 3 mg · kg · 8 h (remaining FAAH activity) / In Vivo LVh 3 mg·kg 8 h (remaining FAAH activity, % of control): liver homogenate, low value = strong inhibitor; for In Vivo LVh 3 mg·kg 8 h (remaining FAAH activity, % of control): 8 h after dosing
T3 construct: A fragment of liver, left lung lobe and brain without cerebellum were removed; from tissue; host or cells: male NMRI mice; brain (without cerebellum) and liver homogenates
T3 sequence (O08914 1-579): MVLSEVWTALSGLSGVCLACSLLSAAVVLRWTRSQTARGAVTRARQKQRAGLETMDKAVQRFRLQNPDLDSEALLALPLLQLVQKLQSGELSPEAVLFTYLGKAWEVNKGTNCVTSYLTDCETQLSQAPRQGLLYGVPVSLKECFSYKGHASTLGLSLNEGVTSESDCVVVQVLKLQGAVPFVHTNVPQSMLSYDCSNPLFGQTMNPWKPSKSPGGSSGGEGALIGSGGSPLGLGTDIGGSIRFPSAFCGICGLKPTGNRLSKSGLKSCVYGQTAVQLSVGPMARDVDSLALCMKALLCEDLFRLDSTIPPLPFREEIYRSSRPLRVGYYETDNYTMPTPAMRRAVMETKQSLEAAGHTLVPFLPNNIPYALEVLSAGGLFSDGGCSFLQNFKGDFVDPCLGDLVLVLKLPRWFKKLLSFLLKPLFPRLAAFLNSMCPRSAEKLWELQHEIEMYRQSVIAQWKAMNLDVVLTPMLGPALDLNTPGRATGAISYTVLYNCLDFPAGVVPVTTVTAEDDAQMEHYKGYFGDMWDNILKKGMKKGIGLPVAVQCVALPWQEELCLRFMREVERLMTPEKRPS
Summary of the method: (§3)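 Male NMRI mice, fasted overnight, got 30 or 3 mg/kg compound orally (0.5% CMC suspension or water) and were compared with vehicle controls. Brain (no cerebellum) and liver homogenates were incubated with 2 μM AEA plus 5 nM 3H-AEA at 37 °C, 10 min for brain and 7 min for liver. Remaining FAAH activity is % of vehicle after blank subtraction.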

FAAH [6] = target: T3, FAAH; experiment: In vivo FAAH inhibition after oral dosing, remaining activity in brain homogenate (BRh, central nervous tissue); design: species or system NMRI mice; conditions: for In Vivo BRh 3 mg · kg · 8 h (remaining FAAH activity) / In Vivo BRh 3 mg·kg 8 h (remaining FAAH activity, % of control): brain homogenate, low value = strong inhibitor; for In Vivo BRh 3 mg · kg · 8 h (remaining FAAH activity) / FAAH BRh 3 mg · kg · 8 h: 3 mg/kg oral; for FAAH BRh 3 mg · kg · 8 h: in vivo, mouse brain, remaining enzymatic activity; for In Vivo BRh 3 mg·kg 8 h (remaining FAAH activity, % of control): 8 h after dosing
Summary of the method: as §3

[7] = rat brain membranes, 100 = no measurable inhibition

| CE Mou LVms 10 uM 10 min (carboxylesterase (CE) [1]) | CE Rat LVms 10 uM 10 min (carboxylesterase (CE) [3]) | In Vitro 100 nM (FAAH activity, % of control) (FAAH [2]; rat brain membranes) | In Vivo LVh 3 mg·kg 8 h (remaining FAAH activity, % of control) (FAAH [5]) | In Vivo BRh 3 mg·kg 8 h (remaining FAAH activity, % of control) (FAAH [6]) | SMILES | also measured |
| --- | --- | --- | --- | --- | --- | --- |
| 31 % of control | 33 % of control |  |  |  | O=C(NCCCCc1ccccc1)n1nnc2ccccc21 [Compound 85, N-(4-phenylbutyl)-1H-benzo[d][1,2,3]triazole-1-carboxamide] | FAAH 100 nM (FAAH [2]; [7]): 0.1 % of control; In Vitro FAAH activity, 100 nM (FAAH [2]): 0.1 % of control |
| 50.7 % of control | 41.1 % of control |  |  |  | CN(C(=O)n1nnc2cc(Br)ccc21)C1CCCCC1 [Compound 97, 5-bromo-N-cyclohexyl-N-methyl-1H-benzo[d][1,2,3]triazole-1-carboxamide] | FAAH 100 nM (FAAH [2]; [7]): 0 % of control; In Vitro FAAH activity, 100 nM (FAAH [2]): 0 % of control |
| 88.6 % of control | 97.8 % of control |  |  |  | CN(C(=O)n1cnc(-c2ccc(S(C)(=O)=O)cc2)c1)C1CCN(Cc2ccccc2)CC1 [Compound 567, N-(1-benzylpiperidin-4-yl)-N-methyl-4-(4-(methylsulfonyl)phenyl)-1H-imidazole-1-carboxamide] | MAGL Rat CRBcyto 12.5 uM 8 min [4]: 94.2 % of control; FAAH LVh 3 mg · kg · 8 h (FAAH [5]): 6.3 % of control; In Vivo LVh 3 mg · kg · 8 h (remaining FAAH activity) (FAAH [5]): 6.3 % of control; In Vivo BRh 3 mg · kg · 8 h (remaining FAAH activity) (FAAH [6]): 87.8 % of control; FAAH BRh 3 mg · kg · 8 h (FAAH [6]): 87.8 % of control |
|  |  | 93.9 % of control | 10.4 % of control | 111.9 % of control | CN(C(=O)n1cnc(-c2ccc(O)c(N)c2)c1)C1CCCCC1.Cl [Compound no. 357, 4-(3-amino-4-hydroxyphenyl)-N-cyclohexyl-N-methyl-1H-imidazole-1-carboxamide hydrochloride] |  |
|  |  | 1.4 % of control | 1.7 % of control | 2.5 % of control | CC1(C)COCN1C(=O)n1nnc2cc(Cl)ccc21 [Compound no. 359, (5-chloro-1-benzo[d][1,2,3]triazol-1-yl)(4,4-dimethyloxazolidin-3-yl)methanone] |  |
|  |  | 1.3 % of control | 1.4 % of control | 6.3 % of control | CC1(C)COCN1C(=O)n1nnc2ccc(-c3ccccc3)cc21 [Compound no. 361, (4,4-dimethyloxazolidin-3-yl)(6-phenyl-1H-benzo[d][1,2,3]triazol-1-yl)methanone] |  |

Further lines, the compound ahead of its results:

| SMILES | CE Mou LVms 10 uM 10 min (carboxylesterase (CE) [1]) | CE Rat LVms 10 uM 10 min (carboxylesterase (CE) [3]) | In Vitro 100 nM (FAAH activity, % of control) (FAAH [2]; rat brain membranes) | In Vivo LVh 3 mg·kg 8 h (remaining FAAH activity, % of control) (FAAH [5]) | In Vivo BRh 3 mg·kg 8 h (remaining FAAH activity, % of control) (FAAH [6]) | also measured |
| --- | --- | --- | --- | --- | --- | --- |
| COc1ccc(N(C)C(=O)n2cnc(-c3ccc4ccccc4c3)c2)cc1 [Compound 16, N-(4-methoxyphenyl)-N-methyl-4-(naphthalen-2-yl)-1H-imidazole-1-carboxamide] | 95.4 % of control | 87.5 % of control |  |  |  | FAAH 10 uM (FAAH [2]; 10 uM compound, rat brain membranes, 100 = no measurable inhibition): 24.7 % of control; In Vitro FAAH activity, 10 uM (FAAH [2]; 10 uM test compound): 24.7 % of control |
| CN(C(=O)n1cnc(-c2ccc3oc(=O)[nH]c3c2)c1)C1CCCC1 [Compound 564, N-cyclopentyl-N-methyl-4-(2-oxo-2,3-dihydrobenzo[d]oxazol-5-yl)-1H-imidazole-1-carboxamide] | 87.4 % of control | 96.1 % of control |  |  |  | MAGL Rat CRBcyto 12.5 uM 8 min [4]: 91.6 % of control; FAAH LVh 3 mg · kg · 8 h (FAAH [5]): 2.3 % of control; In Vivo LVh 3 mg · kg · 8 h (remaining FAAH activity) (FAAH [5]): 2.3 % of control; In Vivo BRh 3 mg · kg · 8 h (remaining FAAH activity) (FAAH [6]): 37.6 % of control; FAAH BRh 3 mg · kg · 8 h (FAAH [6]): 37.6 % of control |
| CC1(C)COCN1C(=O)n1nnc2c(F)cc(F)cc21 [Compound no. 360, (4,6-difluoro-1H-benzo[d][1,2,3]triazol-1-yl)(4,4-dimethyloxazolidin-3-yl)methanone] |  |  | 1.6 % of control | 3.7 % of control | 3.1 % of control |  |
| CN(C(=O)n1cnc(-c2ccc[n+]([O-])c2)c1)C1CCCCC1 [Compound no. 362, 3-(1-(cyclohexyl(methyl)carbamoyl)-1H-imidazol-4-yl)pyridine 1-oxide] |  |  | 78.2 % of control | 1.7 % of control | 1.6 % of control |  |
